System: T1, TaAPY3-1
T1 construct: pET22a, E. coli BL21; genome set A copy
Experiment: phosphate release (Phosphate Assay Kit)
Assay type: biochemical, Triticum aestivum
Details: 37 °C, pH 5.5, 8 mM Ca2+

Nc1ncnc2c1ncn2[C@@H]1O[C@H](COP(=O)(O)OP(=O)(O)OP(=O)(O)O)[C@@H](O)[C@H]1O [ATP] gave a Km of 8.7 mM.

Reference: publication PMC6744936, “Genome-wide identification, characterization and expression pattern analysis of APYRASE family members in response to abiotic and biotic stresses in wheat” (PeerJ, 2019)
